ChEMBL document CHEMBL1909294, “Translating clinical findings into knowledge in drug safety evaluation--drug induced liver injury prediction system (DILIps)” (PLoS Comput Biol, 2011)

Experiments:
Hepatotoxicity [1] = system: Hepatotoxicity;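 as to HepSE Combined Scores: combined hepatic side effect score as listed in the training data of the Drug Induced Liver Injury Prediction System (DILIps)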;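 as to HepSE cirrhosis: cirrhosis hepatic side effect score taken from the DILIps (drug-induced liver injury prediction) training set; call rule not given here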;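 as to HepSE elevated liver function tests: hepatic side effect score for raised liver function tests, as recorded in the DILIps training set used for predicting drug-induced liver injury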; as to HepSE hepatic failure: call rule not given here;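 as to HepSE jaundice: Jaundice-related hepatic side-effect score drawn from the training data of the DILIps (drug-induced liver injury prediction system); call rule not given here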; as to HepSE liver disease: call rule not given here;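 as to HepSE liver function tests abnormal: hepatic side effect score taken from the DILIps (drug-induced liver injury prediction system) training data, here covering abnormal liver function test findings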
Hepatotoxicity [2] = system: Hepatotoxicity; remark: listed apart in the source;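 as to HepSE Combined Scores: combined hepatic side effect score as listed in the training data of the Drug Induced Liver Injury Prediction System (DILIps)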;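 as to HepSE cirrhosis: cirrhosis hepatic side effect score taken from the DILIps (drug-induced liver injury prediction) training set; call rule not given here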;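 as to HepSE elevated liver function tests: hepatic side effect score for raised liver function tests, as recorded in the DILIps training set used for predicting drug-induced liver injury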; as to HepSE hepatic failure: call rule not given here;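 as to HepSE jaundice: Jaundice-related hepatic side-effect score drawn from the training data of the DILIps (drug-induced liver injury prediction system); call rule not given here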; as to HepSE liver disease: call rule not given here;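 as to HepSE liver function tests abnormal: hepatic side effect score taken from the DILIps (drug-induced liver injury prediction system) training data, here covering abnormal liver function test findings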
Hepatotoxicity [3] = system: Hepatotoxicity; remark: listed apart in the source;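 as to HepSE Combined Scores: combined hepatic side effect score as listed in the training data of the Drug Induced Liver Injury Prediction System (DILIps)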;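 as to HepSE cirrhosis: cirrhosis hepatic side effect score taken from the DILIps (drug-induced liver injury prediction) training set; call rule not given here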;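 as to HepSE elevated liver function tests: hepatic side effect score for raised liver function tests, as recorded in the DILIps training set used for predicting drug-induced liver injury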; as to HepSE hepatic failure: call rule not given here;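 as to HepSE jaundice: Jaundice-related hepatic side-effect score drawn from the training data of the DILIps (drug-induced liver injury prediction system); call rule not given here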; as to HepSE liver disease: call rule not given here;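 as to HepSE liver function tests abnormal: hepatic side effect score taken from the DILIps (drug-induced liver injury prediction system) training data, here covering abnormal liver function test findings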
Hepatotoxicity [4] = system: Hepatotoxicity; remark: listed apart in the source;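 as to HepSE cirrhosis: cirrhosis hepatic side effect score taken from the DILIps (drug-induced liver injury prediction) training set; call rule not given here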;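 as to HepSE elevated liver function tests: hepatic side effect score for raised liver function tests, as recorded in the DILIps training set used for predicting drug-induced liver injury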; as to HepSE hepatic failure: call rule not given here;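 as to HepSE jaundice: Jaundice-related hepatic side-effect score drawn from the training data of the DILIps (drug-induced liver injury prediction system); call rule not given here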; as to HepSE liver disease: call rule not given here;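 as to HepSE liver function tests abnormal: hepatic side effect score taken from the DILIps (drug-induced liver injury prediction system) training data, here covering abnormal liver function test findings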
Hepatotoxicity [5] = system: Hepatotoxicity; remark: listed apart in the source; as to HepSE hepatic failure: call rule not given here; as to HepSE liver disease: call rule not given here
Hepatotoxicity [6] = system: Hepatotoxicity; remark: listed apart in the source; as to HepSE hepatic failure: call rule not given here; as to HepSE liver disease: call rule not given here
Hepatotoxicity [7] = system: Hepatotoxicity; remark: listed apart in the source
Hepatotoxicity [8] = system: Hepatotoxicity; remark: listed apart in the source
Hepatotoxicity [9] = system: Hepatotoxicity; remark: listed apart in the source
Hepatotoxicity [10] = system: Hepatotoxicity; remark: listed apart in the source
Hepatotoxicity [11] = system: Hepatotoxicity; remark: listed apart in the source
Hepatotoxicity [12] = system: Hepatotoxicity; remark: listed apart in the source
Hepatotoxicity [13] = system: Hepatotoxicity; remark: listed apart in the source
Hepatotoxicity [14] = system: Hepatotoxicity; remark: listed apart in the source

Structure (SMILES) | HepSE_elevated liver function tests (Hepatotoxicity [1]) | HepSE_jaundice (Hepatotoxicity [2]) | HepSE_cirrhosis (Hepatotoxicity [3]) | HepSE_hepatic failure (Hepatotoxicity [4]) | HepSE_liver function tests abnormal (Hepatotoxicity [5]) | HepSE_liver disease (Hepatotoxicity [6]) | HepSE_Combined Scores (Hepatotoxicity [7]) | HepSE_bilirubinemia (Hepatotoxicity [8]) | HepSE_liver fatty (Hepatotoxicity [9]) | HepSE_cholecystitis (Hepatotoxicity [10]) | HepSE_hepatic necrosis (Hepatotoxicity [11]) | HepSE_hepatitis (Hepatotoxicity [12]) | HepSE_cholelithiasis (Hepatotoxicity [13]) | HepSE_hepatomegaly (Hepatotoxicity [14]) | further results
CCOC(=O)[C@H](CCc1ccccc1)N[C@H]1CCc2ccccc2N(CC(=O)O)C1=O [BENAZEPRIL] | 0 | 1 | 0 | 0 | 0 | 0 | 2 | 0 | 0 | 0 | 0 | 1 | 0 | 0 | 
CCCN(CCc1ccsc1)C1CCc2c(O)cccc2C1 (configuration not stated) | 0 | 0 | 0 | 0 | 0 | 0 | 0 | 0 | 0 | 0 | 0 | 0 | 0 | 0 | 
CNC[C@H](O)c1ccc(O)c(O)c1 [EPINEPHRINE] |  |  |  |  |  |  |  |  |  |  |  |  |  |  | HepSE_elevated liver function tests (Hepatotoxicity [1]; Liver): 0; HepSE_jaundice (Hepatotoxicity [2]; Liver): 0; HepSE_cirrhosis (Hepatotoxicity [3]; Liver): 0; HepSE_hepatic failure (Hepatotoxicity [4]; Liver): 0; HepSE_liver function tests abnormal (Hepatotoxicity [5]; Liver): 0; HepSE_liver disease (Hepatotoxicity [6]; Liver): 0; HepSE_Combined Scores (Hepatotoxicity [7]; Liver): 0; HepSE_bilirubinemia (Hepatotoxicity [8]; Liver): 0; HepSE_liver fatty (Hepatotoxicity [9]; Liver): 0; HepSE_cholecystitis (Hepatotoxicity [10]; Liver): 0; HepSE_hepatic necrosis (Hepatotoxicity [11]; Liver): 0; HepSE_hepatitis (Hepatotoxicity [12]; Liver): 0; HepSE_cholelithiasis (Hepatotoxicity [13]; Liver): 0; HepSE_hepatomegaly (Hepatotoxicity [14]; Liver): 0
CC(=O)O [ACETIC ACID] |  |  |  |  |  |  |  |  |  |  |  |  |  |  | HepSE_elevated liver function tests (Hepatotoxicity [1]; Liver): 0; HepSE_jaundice (Hepatotoxicity [2]; Liver): 0; HepSE_cirrhosis (Hepatotoxicity [3]; Liver): 0; HepSE_hepatic failure (Hepatotoxicity [4]; Liver): 0; HepSE_liver function tests abnormal (Hepatotoxicity [5]; Liver): 0; HepSE_liver disease (Hepatotoxicity [6]; Liver): 0; HepSE_Combined Scores (Hepatotoxicity [7]; Liver): 0; HepSE_bilirubinemia (Hepatotoxicity [8]; Liver): 0; HepSE_liver fatty (Hepatotoxicity [9]; Liver): 0; HepSE_cholecystitis (Hepatotoxicity [10]; Liver): 0; HepSE_hepatic necrosis (Hepatotoxicity [11]; Liver): 0; HepSE_hepatitis (Hepatotoxicity [12]; Liver): 0; HepSE_cholelithiasis (Hepatotoxicity [13]; Liver): 0; HepSE_hepatomegaly (Hepatotoxicity [14]; Liver): 0
N=C(N)NC(=O)c1nc(Cl)c(N)nc1N [AMILORIDE] | 0 | 1 | 0 | 0 | 0 | 1 | 2 | 0 | 0 | 0 | 0 | 0 | 0 | 0 | 
CC1(C)S[C@@H]2[C@H](NC(=O)Cc3ccccc3)C(=O)N2[C@H]1C(=O)O [PENICILLIN G] | 0 | 0 | 0 | 0 | 0 | 0 | 0 | 0 | 0 | 0 | 0 | 0 | 0 | 0 | 
CC(=O)NCCCS(=O)(=O)O [ACAMPROSATE] | 0 | 0 | 1 | 0 | 1 | 0 | 5 | 1 | 0 | 1 | 0 | 1 | 0 | 0 | 
CCCCC1=NC2(CCCC2)C(=O)N1Cc1ccc(-c2ccccc2-c2nnn[nH]2)cc1 [IRBESARTAN] | 1 | 1 | 0 | 0 | 0 | 0 | 3 | 0 | 0 | 0 | 0 | 1 | 0 | 0 | 
Nc1nc(O)c2ncn(COC(CO)CO)c2n1 [GANCICLOVIR] | 0 | 1 | 0 | 1 | 0 | 0 | 4 | 0 | 0 | 0 | 0 | 1 | 1 | 0 | 
CO[C@]12CC[C@@]3(C[C@@H]1[C@](C)(O)C(C)(C)C)[C@H]1Cc4ccc(O)c5c4[C@@]3(CCN1CC1CC1)[C@H]2O5 [BUPRENORPHINE] | 0 | 0 | 0 | 0 | 0 | 0 | 0 | 0 | 0 | 0 | 0 | 0 | 0 | 0 | 
CC[C@@H](C(N)=O)N1CCCC1=O | 0 | 0 | 0 | 1 | 0 | 0 | 2 | 0 | 0 | 0 | 0 | 1 | 0 | 0 | 
CN(C)CCC=C1c2ccccc2C=Cc2ccccc21 [CYCLOBENZAPRINE] |  |  |  |  |  |  |  |  |  |  |  |  |  |  | HepSE_elevated liver function tests (Hepatotoxicity [1]; Liver): 0; HepSE_jaundice (Hepatotoxicity [2]; Liver): 1; HepSE_cirrhosis (Hepatotoxicity [3]; Liver): 0; HepSE_hepatic failure (Hepatotoxicity [4]; Liver): 0; HepSE_liver function tests abnormal (Hepatotoxicity [5]; Liver): 0; HepSE_liver disease (Hepatotoxicity [6]; Liver): 0; HepSE_Combined Scores (Hepatotoxicity [7]; Liver): 2; HepSE_bilirubinemia (Hepatotoxicity [8]; Liver): 0; HepSE_liver fatty (Hepatotoxicity [9]; Liver): 0; HepSE_cholecystitis (Hepatotoxicity [10]; Liver): 0; HepSE_hepatic necrosis (Hepatotoxicity [11]; Liver): 0; HepSE_hepatitis (Hepatotoxicity [12]; Liver): 1; HepSE_cholelithiasis (Hepatotoxicity [13]; Liver): 0; HepSE_hepatomegaly (Hepatotoxicity [14]; Liver): 0
COc1cccc(C2(O)CCCCC2CN(C)C)c1 (configuration not stated) [TRAMADOL] | 0 | 0 | 0 | 1 | 1 | 0 | 5 | 0 | 0 | 1 | 0 | 1 | 1 | 0 | 
